Experimental findings from patent publication US9404081B2, “Pyruvate kinase activators for use in therapy” (AGIOS PHARMACEUTICALS, INC., priority 2011, dated 2016) are described below.

Common to all, as to format: biochemical
In assay [1] the target is T1, PKR R532W (Homo sapiens, UniProt P30613, R532W). As to the kind of experiment: PKR R532W Single Point Percent Activation Assay. The conditions noted are these: read-out: Act, % 532W. Summed up: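 PKR R532W (100 ng/well) preincubated 60 min at RT with compound at 1 μM in Tris pH 7.5, KCl, MgCl2, DTT, BSA. Reaction started with ADP (0.36 mM), with PEP 0.1 mM, NADH 180 μM and LDH coupling; read at OD340, room temperature.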

In assay [2] the target is T1, PKR R532W. As to the kind of experiment: PKR Mutant Assay (AC50), PKR R532W. The protocol: (§1) • PKR or PKR mutant enzyme solution was diluted in assay buffer. • 2 μL of test compound was added into wells first, and then 180 μL reaction mix was added. • Reactions mixture with test compound was assembled except for ADP, and plates were stored for 60 minutes at room temperature. • 20 uL ADP was added to start reaction at room temperature and reaction progress was measured as changes in absorbance at 340 nm wavelength at room temperature.
(§2) Test Compound Preparation: • Test compound stock was made at 100× concentration in 100% DMSO (10 mM) • 1 to 3 dilutions were made for 11 points (i.e. 50 μl of first concentration added to 100 μl 100% DMSO to yield 3.33 mM, 50 μl of this added to 100 μl DMSO to yield 1.11 mM, and so forth) • 1 to 100 dilution into assay (2 μl in 200 μl) yielded starting concentration of 100 μM, decreasing 3 fold for 11 points. Assay Buffer: 100 mM KCl, 50 mM Tris 7.5, 5 mM MgCl2, 1 mM DTT, 0.03% BSA Reaction Mixture: PKR mutant enzyme: 80-400 ng/well; ADP: 0.22-1.65 mM; PEP: 0.1-0.5 mM; NADH: 180 uM; LDH: 0.5 units (Sigma#59023); DTT: 1 mM; BSA: 0.03%.

In assay [3] the target is PKR T384W (Homo sapiens, UniProt P30613, T384W). As to the kind of experiment: PKR T384W Single Point Percent Activation Assay. The conditions noted are these: read-out: Act. % 384W. Summed up: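 Soluble PKR T384W (300 ng/well) preincubated 60 min at RT with 1 μM compound in 50 mM Tris pH 7.5, 100 mM KCl, 5 mM MgCl2, 1 mM DTT, 0.03% BSA. Started with ADP (0.08 mM); PEP 0.23 mM, LDH-coupled NADH (180 μM) consumption read at OD340, room temperature.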

Assay [4] deals with wild type PKR (Homo sapiens, UniProt P30613). Nature of the assay: PKR Mutant Assay (AC50), wild type PKR. The note with it: read-out: PKR WT AC50. The protocol: as §1, §2
The target in assay [5] is T2, PKR R510Q (Homo sapiens, UniProt P30613, R510Q). As to the kind of experiment: PKR R510Q Single Point Percent Activation Assay. The conditions noted are these: read-out: Act. % 510Q. Summed up:
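Test compound was used at a single concentration of 1 μM and preincubated 60 min at room temperature with PKR R510Q (40 ng/well). The buffer was 50 mM Tris pH 7.5, 100 mM KCl, 5 mM MgCl2, 1 mM DTT and 0.03% BSA. The reaction was started with 0.2 mM ADP and read as OD340 in an LDH-coupled system (0.11 mM PEP, 180 μM NADH).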

Assay [6] deals with PKR wt (Homo sapiens, UniProt P30613). Nature of the assay: PKR WT Single Point Percent Activation Assay. Summed up:
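Single concentration of 1 μM compound preincubated 60 min at RT with PKR wt (100 ng/well) in Tris pH 7.5, KCl, MgCl2, DTT, BSA. Reaction started with ADP (0.48 mM final) with PEP 0.15 mM, coupled LDH/NADH (180 μM), read at OD340, room temperature; given as percent activation.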

Assay [7] addresses T2, PKR R510Q. Nature of the assay: PKR Mutant Assay (AC50), PKR R510Q. The protocol:
as §1, §2

Chain of PKR T384W (P30613 whole entry T384W): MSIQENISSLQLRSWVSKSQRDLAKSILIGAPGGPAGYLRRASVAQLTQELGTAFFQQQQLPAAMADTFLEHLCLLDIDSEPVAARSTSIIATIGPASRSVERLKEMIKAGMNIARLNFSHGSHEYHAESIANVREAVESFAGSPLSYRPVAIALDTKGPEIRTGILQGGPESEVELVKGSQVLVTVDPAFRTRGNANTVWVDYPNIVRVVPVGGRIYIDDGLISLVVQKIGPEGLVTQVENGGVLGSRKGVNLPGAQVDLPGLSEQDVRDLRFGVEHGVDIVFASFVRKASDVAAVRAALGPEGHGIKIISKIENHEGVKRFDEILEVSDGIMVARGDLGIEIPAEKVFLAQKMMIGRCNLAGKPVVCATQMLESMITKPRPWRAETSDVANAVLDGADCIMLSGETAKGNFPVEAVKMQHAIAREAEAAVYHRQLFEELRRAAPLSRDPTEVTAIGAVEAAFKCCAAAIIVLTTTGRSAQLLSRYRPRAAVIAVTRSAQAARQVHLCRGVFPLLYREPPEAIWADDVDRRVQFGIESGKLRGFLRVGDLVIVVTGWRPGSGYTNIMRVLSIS
T1 sequence (P30613 whole entry R532W): as the sequence (P30613 whole entry T384W) above, with W384T, R532W counted along it
T2 sequence (P30613 whole entry R510Q): as the sequence (P30613 whole entry T384W) above, with W384T, R510Q counted along it
Chain of wild type PKR (P30613 whole entry): as the sequence (P30613 whole entry T384W) above, with W384T counted along it
Chain of PKR wt (P30613 whole entry): as the sequence (P30613 whole entry T384W) above, with W384T counted along it

The term AC50 denotes the midpoint of the concentration-response curve, whichever way the signal moves. On to `CC(C)OC(=O)N1[C@H](C)CN(C(=O)c2ccc(NS(=O)(=O)c3cccc4cccnc34)cc2)C[C@@H]1C`, for which the activation at 1 µM in assay [1], in assay [3], in assay [5] and in assay [6] was 101 to 500% throughout. The AC50 in assay [2] was more than 0.5 µM; in assay [4], less than 0.1 µM.
As to `CCOC(=O)N1CCN(C(=O)c2ccc(NS(=O)(=O)c3cccc4cccnc34)cc2)[C@@H](C)C1`, the activation at 1 µM lay within 101 to 500% in assay [1], 101 to 500% in assay [3], 1 to 100% in assay [5] and 101 to 500% in assay [6]. For the same molecule, the AC50 in assay [2] and in assay [4] was more than 0.5 µM each time.
Turning to `CC(C)OC(=O)N1CCN(C(=O)c2ccc(NS(=O)(=O)c3cccc4cccnc34)cc2)[C@H](C)C1`, the AC50 is more than 0.5 µM in assay [7], less than 0.1 µM in assay [2] and less than 0.1 µM in assay [4]. The activation at 1 µM in assay [1], in assay [3], in assay [5] and in assay [6] was 101 to 500% each time.
Regarding `C[C@@H]1CN(CC2CCCCO2)CCN1C(=O)c1ccc(NS(=O)(=O)c2cccc3cccnc23)cc1` (stereo partly shown), the activation at 1 µM fell in the range of 101 to 500% in assay [1], 101 to 500% in assay [3], 1 to 100% in assay [5] and 101 to 500% in assay [6].
For the molecule `O=C(c1ccc(NS(=O)(=O)c2cccc3cccnc23)cc1)N1CC2CCC(C1)N2Cc1ccccc1`, the activation at 1 µM in assay [1], in assay [3], in assay [5] and in assay [6] was 101 to 500% in each case.
Turning to `C[C@@H]1CN(CC2CC2)CCN1C(=O)c1ccc(NS(=O)(=O)c2cccc3cccnc23)cc1`, the activation at 1 µM in assay [1] lay in the range of 1 to 100%; in assay [3], 101 to 500%; in assay [5], 101 to 500%; in assay [6] it was 101 to 500%.
With `C[C@H]1CN(CC2CCC2)CCN1C(=O)c1ccc(NS(=O)(=O)c2cccc3cccnc23)cc1`, the activation at 1 µM in assay [1], in assay [3], in assay [5] and in assay [6] was 101 to 500% in each case.
In the case of `O=C(c1ccc(NS(=O)(=O)c2cccc3cccnc23)cc1)N1CCN(Cc2cc(F)cc(F)c2)C[C@@H]1c1ccccc1`, the activation at 1 µM in assay [1] is 1 to 100%; in assay [3] it was 1 to 100%; in assay [5], 101 to 500%; in assay [6] it was 1 to 100%.
Consider `C[C@@H]1CN(Cc2ccc(F)cc2)CCN1C(=O)c1ccc(NS(=O)(=O)c2cccc3cccnc23)cc1`, for which the activation at 1 µM in assay [1] lay within 101 to 500%; in assay [3], 101 to 500%; in assay [5], 1 to 100%; in assay [6], 101 to 500%.
For `C[C@@H]1CN(C(=O)c2ccc(NS(=O)(=O)c3cccc4cccnc34)cc2)CCN1C(=O)c1ccccn1`, the activation at 1 µM in assay [1] is 1 to 100%; in assay [3], 101 to 500%; in assay [5] it was 1 to 100%; in assay [6], 101 to 500%.
Regarding `CC(c1cc(F)c(F)cc1F)N1CCN(C(=O)c2ccc(NS(=O)(=O)c3cccc4cccnc34)cc2)[C@@H](C)C1` (stereo partly shown), the activation at 1 µM in assay [1] lay within 101 to 500%; in assay [3] it was 101 to 500%; in assay [5] it was 1 to 100%; in assay [6] it was 101 to 500%.
With `C[C@H]1CN(C(=O)O[C@@H]2CCOC2)CCN1C(=O)c1ccc(NS(=O)(=O)c2cccc3cccnc23)cc1`, the activation at 1 µM is 101 to 500% in assay [1], 101 to 500% in assay [3], 1 to 100% in assay [5] and 101 to 500% in assay [6].
In the case of `CC1CN(Cc2cc(F)cc(F)c2F)CC(C)N1C(=O)c1ccc(NS(=O)(=O)c2cccc3cccnc23)cc1` (stereo not shown), the activation at 1 µM in assay [1], in assay [3], in assay [5] and in assay [6] was 101 to 500% each time.
Take `C[C@@H]1CN(Cc2ccc(Cl)c(F)c2)CCN1C(=O)c1ccc(NS(=O)(=O)c2cccc3cccnc23)cc1`: the activation at 1 µM in assay [1] is 101 to 500%; in assay [3] it was 1 to 100%; in assay [5] it was 1 to 100%; in assay [6], 101 to 500%.
For the molecule `CC(c1c(F)ccc(F)c1F)N1CCN(C(=O)c2ccc(NS(=O)(=O)c3cccc4cccnc34)cc2)[C@@H](C)C1` (stereo partly shown), the activation at 1 µM in assay [1] was 101 to 500%; in assay [3], 101 to 500%; in assay [5] it was 1 to 100%; in assay [6], 1 to 100%.
Turning to `CC(c1cc(F)cc(F)c1)N1CCN(C(=O)c2ccc(NS(=O)(=O)c3cccc4cccnc34)cc2)[C@@H](C)C1` (stereo partly shown), the activation at 1 µM in assay [1], in assay [3], in assay [5] and in assay [6] was 1 to 100% each time.
As to `C[C@@H]1CN(C[C@@H]2CCCO2)CCN1C(=O)c1ccc(NS(=O)(=O)c2cccc3cccnc23)cc1`, the activation at 1 µM in assay [1], in assay [3], in assay [5] and in assay [6] was 101 to 500% each time.
On to `C[C@H]1CN(Cc2cc(F)c(F)cc2F)CCN1C(=O)c1ccc(NS(=O)(=O)c2cccc3cccnc23)cc1`, for which the activation at 1 µM was in the range of 1 to 100% in assay [1], 101 to 500% in assay [3], 1 to 100% in assay [5] and 1 to 100% in assay [6].
Take `CC1CN(Cc2ccccc2)CC(C)N1C(=O)c1ccc(NS(=O)(=O)c2cccc3cccnc23)cc1` (stereo not shown): the concentration at half-maximal activity (AC50) in assay [7] is less than 0.1 µM. The activation at 1 µM in assay [1], in assay [3], in assay [5] and in assay [6] was 101 to 500% in each case.
With `C[C@@H]1CN(C(=O)c2ccc(NS(=O)(=O)c3cccc4cccnc34)cc2)CCN1Cc1ccccc1`, the activation at 1 µM in assay [1], in assay [3], in assay [5] and in assay [6] was 101 to 500% in each case.
In the case of `C[C@H]1CN(C(=O)c2ccccn2)CCN1C(=O)c1ccc(NS(=O)(=O)c2cccc3cccnc23)cc1`, the activation at 1 µM in assay [1] fell in the range of 101 to 500%; in assay [3] it was 1 to 100%; in assay [5] it was 1 to 100%; in assay [6] it was 101 to 500%.
As to `CC[C@H]1CN(C(C)c2cc(F)c(F)c(F)c2)CCN1C(=O)c1ccc(NS(=O)(=O)c2cccc3cccnc23)cc1` (stereo partly shown), the activation at 1 µM in assay [1], in assay [3], in assay [5] and in assay [6] was 1 to 100% throughout.
For the molecule `CC1CN(CC2CCOC2)CC(C)N1C(=O)c1ccc(NS(=O)(=O)c2cccc3cccnc23)cc1` (stereo not shown), the activation at 1 µM in assay [1] fell in the range of 1 to 100%; in assay [3], 1 to 100%; in assay [5] it was 101 to 500%; in assay [6] it was 1 to 100%.
Turning to `O=C(c1ccc(NS(=O)(=O)c2cccc3cccnc23)cc1)N1CC2CCC(C1)N2CC1CC1`, the activation at 1 µM is 101 to 500% in assay [1], 101 to 500% in assay [3], 101 to 500% in assay [5] and 1 to 100% in assay [6].
For the molecule `C[C@H]1CN(Cc2ccc(F)cc2)CCN1C(=O)c1ccc(NS(=O)(=O)c2cccc3cccnc23)cc1Cl`, the activation at 1 µM in assay [1] was in the range of 101 to 500%; in assay [3], 1 to 100%; in assay [5], 1 to 100%; in assay [6], 1 to 100%.
Turning to `O=C(c1ccc(NS(=O)(=O)c2cccc3cccnc23)cc1)N1CCN(CC2CC2)c2ccccc21`, the activation at 1 µM in assay [1] fell in the range of 101 to 500%; in assay [3], 101 to 500%; in assay [5], 1 to 100%; in assay [6], 101 to 500%.
